In US12186283B2, “Bismuth-thiol compositions and methods of use” (Microbion Corporation, priority 2018, dated 2025):
“And” between values parts separate entries of the source, which are not always exact repeats. Identical values can stand only once. Marks after values point to notes of the source that are not given here.

Legend:
E. coli ATCC 25922 = test: Broth microdilution MIC, QC organism (Example 13, Table 110); type: cell-based, Escherichia coli
Excerpt: MECs were only reported where observed.

[1] = tested on: M. abscessus / MABSC biofilms; type: cell-based, Mycobacterium abscessus complex; conditions: AMT0130-8, MABSC CF-isolate
[2] = Clinical chemistry after face-mask inhalation in beagle dogs; type: in vivo; conditions: times not given
Description: The objective of the study is to determine the maximum tolerated dose (MTD) or maximum feasible dose (MFD) of inhaled bismuth ethanedithiol (BisEDT) after face-mask inhalation exposure (up to 60 min of exposure) in male and female beagle dogs. Animals will be monitored for up to 14 days following the first day of exposure and blood will be collected at predetermined timepoints to analyze the pharmacokinetics of BisEDT. In addition, a coagulation panel will be conducted prior to necropsy. At the conclusion of the study animals will be euthanized and undergo necropsy during which the respiratory tract will be harvested for bioanalytical and histopathological analysis. Results obtained will inform a follow up repeated dose GLP study. This test article is currently being developed as a novel formulation of a broad spectrum antimicrobial/antibiofilm agent, indicated for the treatment of lung infections in patients with cystic fibrosis.
Once adequately conditioned to the restraint device and face-masks, the animals are individually exposed to the test article aerosols. Animals receive a single face-mask inhalation exposure in a ramp study design to test article aerosols for up to 60 min. Animal observations during and post exposure determine the tolerance of inhaled BisEDT aerosols.
Group 1 (vehicle) are exposed to a vehicle atmosphere for 30 minutes. Group 2 (50 μg/kg) are exposed to BisEDT for 30 minutes. Target concentrations and exposure durations for Groups 3-5 are based on the presence of any toxicity via clinical observations or gross necropsy findings. In each of Groups 3-5, if no adverse clinical signs of toxicity are observed, the next groups' exposure will be conducted at a higher target dose. If adverse clinical signs of toxicity are observed, the next groups' exposure will be conducted at a lower target dose. This approach is repeated for all BisEDT doses. The final documented exposure duration is the maximum tolerated dose or the maximum feasible dose.
Blood are collected for pharmacokinetic (PK) analysis prior to exposure, then at 4 hr (±5 min) post exposure, and again on Day 1, Day 2, Day 7 (pre- and 4 hr (±5 min)-post exposure), Day 8, Day 9, Day 10, Day 11, Day 12, Day 13, and Day 14. A total of 0.25 mL is collected at each timepoint. No PK blood is collected from the vehicle control (Group 1) animals; only animals exposed to BisEDT have blood collected for PK analysis. Collected samples are flash frozen without processing for shipment to Medpace for bioanalytical analysis. Additional blood is collected from all animals in all groups for hematology (1 mL) and clinical chemistry (1 mL) at baseline, Day 7 (pre-exposure), and again at euthanasia. Blood (2-2 mL) is collected from all animals at necropsy for coagulation analysis (d-Dimer, fibrinogen, PT, and PTT).
For clinical chemistry analyses, whole blood (1 mL) is placed into serum separator or clot tube and […] by centrifugation at a minimum of 1300 g at 2 to 8° C. for 10 (±1) min. Plasma samples are stored at −70 to −90° C. until analysis.
Clinical chemistry samples are analyzed on a Hitachi Modular Analytics Clinical Chemistry System (Roche Diagnostics, Indianapolis, IN).

[3] = Grp 2, dogs 2001 male, 2002 female, 3 samplings each
[4] = Grp 3, dogs 3001 male, 3002 female, 3 samplings each
[5] = Grp 4, dogs 4001 male, 4004 female (3 samplings each), 4002 female, 4003 male (2 samplings each)
[6] = Grp 4 Avg (stands after dogs 4001, 4004), 3 samplings

CC(S)C(C)S.[Bi] (stereo not drawn) [BisBDT, bismuth-2,3-butanedithiol]
MIC 24 hr (E. coli ATCC 25922): 0.5^a
reduction in biofilm cell viability [1]: only very modest reductions in biofilm cell viability

C1C[S][Bi]([S]CC[S][Bi]2[S]CC[S]2)[S]1 [BisEDT, bismuth-1,2-ethanedithiol]
AGR [2, 3]: 1.9 and 2.0 and 1.8 and 1.7 and 2.3
ALB [2, 3]: 3.3 g/dL and 3.4 g/dL and 3.5 g/dL and 3.6 g/dL and 3.7 g/dL
ALT [2, 3]: 22 IU/L and 18 IU/L and 29 IU/L and 27 IU/L
AST [2, 3]: 48 IU/L and 36 IU/L and 35 IU/L and 41 IU/L and 38 IU/L
BUN [2, 3]: 12 mg/dL and 16 mg/dL and 15 mg/dL and 13 mg/dL and 14 mg/dL
CA2 [2, 3]: 10.9 mg/dL and 10.8 mg/dL and 11.0 mg/dL and 10.6 mg/dL
CHOL [2, 3]: 168 mg/dL and 167 mg/dL and 152 mg/dL and 138 mg/dL and 123 mg/dL and 114 mg/dL
CREA [2, 3]: 0.7 mg/dL and 0.6 mg/dL
GGT [2, 3]: 3 IU/L
GLOB [2, 3]: 1.7 g/dL and 2.0 g/dL and 1.9 g/dL and 1.6 g/dL
GLUC [2, 3]: 91 mg/dL and 97 mg/dL and 102 mg/dL and 95 mg/dL and 98 mg/dL and 89 mg/dL
K [2, 3]: 4.5 mmo/L and 4.9 mmo/L and 4.7 mmo/L and 5.0 mmo/L and 5.2 mmo/L and 4.6 mmo/L
Na [2, 3]: 149 mmo/L and 147 mmo/L and 148 mmo/L
TBIL [2, 3]: 0.15 mg/dL
TP [2, 3]: 5.0 g/dL and 5.1 g/dL and 5.5 g/dL and 5.2 g/dL and 5.3 g/dL
AGR ([2]; Grp 2 Avg, 3 samplings): 1.8 and 2.2 and 2.1
ALB ([2]; Grp 2 Avg, 3 samplings): 3.3 g/dL and 3.5 g/dL and 3.6 g/dL
ALPK ([2]; Grp 2 Avg, 3 samplings): 186 IU/L and 126 IU/L and 116 IU/L
ALT ([2]; Grp 2 Avg, 3 samplings): 20 IU/L and 26 IU/L and 25 IU/L
AST ([2]; Grp 2 Avg, 3 samplings): 42 IU/L and 39 IU/L and 37 IU/L
BUN ([2]; Grp 2 Avg, 3 samplings): 13 mg/dL and 15 mg/dL
CA2 ([2]; Grp 2 Avg, 3 samplings): 10.9 mg/dL and 10.8 mg/dL
CHOL ([2]; Grp 2 Avg, 3 samplings): 153 mg/dL and 145 mg/dL and 133 mg/dL
CREA ([2]; Grp 2 Avg, 3 samplings): 0.7 mg/dL and 0.6 mg/dL
GGT ([2]; Grp 2 Avg, 3 samplings): 3 IU/L
GLOB ([2]; Grp 2 Avg, 3 samplings): 1.8 g/dL and 1.7 g/dL
GLUC ([2]; Grp 2 Avg, 3 samplings): 93 mg/dL and 98 mg/dL and 96 mg/dL
K ([2]; Grp 2 Avg, 3 samplings): 4.8 mmo/L and 5.1 mmo/L and 4.7 mmo/L
Na ([2]; Grp 2 Avg, 3 samplings): 149 mmo/L and 147 mmo/L and 148 mmo/L
TBIL ([2]; Grp 2 Avg, 3 samplings): 0.15 mg/dL
TP ([2]; Grp 2 Avg, 3 samplings): 5.1 g/dL and 5.2 g/dL and 5.4 g/dL
TRIG ([2]; Grp 2 Avg, 3 samplings): 52 mg/dL and 60 mg/dL and 47 mg/dL
AGR [2, 4]: 2.0 and 2.1 and 2.3 and 1.8 and 2.6
ALB [2, 4]: 3.2 g/dL and 3.4 g/dL and 3.5 g/dL and 3.7 g/dL
ALPK [2, 4]: 142 IU/L and 135 IU/L and 121 IU/L and 164 IU/L and 90 IU/L and 176 IU/L
ALT [2, 4]: 26 IU/L and 24 IU/L and 22 IU/L and 28 IU/L and 20 IU/L
AST [2, 4]: 30 IU/L and 32 IU/L and 33 IU/L and 28 IU/L
CA2 [2, 4]: 10.7 mg/dL and 10.5 mg/dL and 10.0 mg/dL and 11.2 mg/dL and 10.8 mg/dL and 10.4 mg/dL
CHOL [2, 4]: 100 mg/dL and 111 mg/dL and 126 mg/dL and 175 mg/dL and 141 mg/dL
CREA [2, 4]: 0.6 mg/dL and 0.7 mg/dL and 1.0 mg/dL and 0.5 mg/dL and 0.9 mg/dL
GGT [2, 4]: 3 IU/L
GLOB [2, 4]: 1.6 g/dL and 1.7 g/dL and 1.5 g/dL and 2.0 g/dL and 1.4 g/dL
K [2, 4]: 4.7 mmo/L and 5.1 mmo/L and 5.8 mmo/L and 5.5 mmo/L and 5.3 mmo/L and 5.9 mmo/L
Na [2, 4]: 146 mmo/L and 148 mmo/L and 149 mmo/L and 145 mmo/L
TBIL [2, 4]: 0.15 mg/dL
TP [2, 4]: 4.8 g/dL and 5.1 g/dL and 5.0 g/dL and 5.5 g/dL
AGR ([2]; Grp 3 Avg, 3 samplings): 2.2 and 1.9 and 2.4
ALB ([2]; Grp 3 Avg, 3 samplings): 3.4 g/dL and 3.5 g/dL and 3.6 g/dL
ALPK ([2]; Grp 3 Avg, 3 samplings): 153 IU/L and 113 IU/L and 149 IU/L
ALT ([2]; Grp 3 Avg, 3 samplings): 27 IU/L and 22 IU/L and 21 IU/L
AST ([2]; Grp 3 Avg, 3 samplings): 30 IU/L and 32 IU/L
CA2 ([2]; Grp 3 Avg, 3 samplings): 11.0 mg/dL and 10.7 mg/dL and 10.2 mg/dL
CHOL ([2]; Grp 3 Avg, 3 samplings): 113 mg/dL and 143 mg/dL and 126 mg/dL
CREA ([2]; Grp 3 Avg, 3 samplings): 0.6 mg/dL and 1.0 mg/dL
GGT ([2]; Grp 3 Avg, 3 samplings): 3 IU/L
GLOB ([2]; Grp 3 Avg, 3 samplings): 1.6 g/dL and 1.9 g/dL and 1.5 g/dL
GLUC ([2]; Grp 3 Avg, 3 samplings): 106 mg/dL and 89 mg/dL and 58 mg/dL
K ([2]; Grp 3 Avg, 3 samplings): 5.1 mmo/L and 5.2 mmo/L and 5.9 mmo/L
Na ([2]; Grp 3 Avg, 3 samplings): 148 mmo/L and 146 mmo/L and 149 mmo/L
TBIL ([2]; Grp 3 Avg, 3 samplings): 0.15 mg/dL
TP ([2]; Grp 3 Avg, 3 samplings): 4.9 g/dL and 5.3 g/dL and 5.1 g/dL
TRIG ([2]; Grp 3 Avg, 3 samplings): 30 mg/dL and 39 mg/dL and 55 mg/dL
AGR [2, 5]: 2.3 and 1.8 and 1.9 and 2.0 and 1.7 and 1.6
ALB [2, 5]: 3.6 g/dL and 3.4 g/dL and 3.2 g/dL and 3.3 g/dL and 3.5 g/dL
ALPK [2, 5]: 103 IU/L and 114 IU/L and 119 IU/L and 93 IU/L and 95 IU/L and 147 IU/L and 146 IU/L and 129 IU/L
ALT [2, 5]: 27 IU/L and 28 IU/L and 25 IU/L and 24 IU/L and 20 IU/L and 21 IU/L and 40 IU/L and 23 IU/L
AST [2, 5]: 32 IU/L and 39 IU/L and 34 IU/L and 33 IU/L and 38 IU/L and 31 IU/L and 35 IU/L and 30 IU/L
BUN [2, 5]: 11 mg/dL and 12 mg/dL and 13 mg/dL and 16 mg/dL and 15 mg/dL
CA2 [2, 5]: 10.8 mg/dL and 10.6 mg/dL and 10.4 mg/dL and 11.1 mg/dL and 11.2 mg/dL and 11.0 mg/dL
CREA [2, 5]: 0.7 mg/dL and 0.6 mg/dL and 0.5 mg/dL
GGT [2, 5]: 3 IU/L
GLOB [2, 5]: 1.6 g/dL and 1.9 g/dL and 1.7 g/dL and 2.1 g/dL and 2.0 g/dL
K [2, 5]: 4.7 mmo/L and 4.8 mmo/L and 4.6 mmo/L and 5.1 mmo/L and 4.3 mmo/L and 5.3 mmo/L and 4.9 mmo/L
Na [2, 5]: 152 mmo/L and 147 mmo/L and 145 mmo/L and 153 mmo/L and 148 mmo/L and 146 mmo/L and 149 mmo/L
TBIL [2, 5]: 0.15 mg/dL
TP [2, 5]: 5.2 g/dL and 5.3 g/dL and 4.9 g/dL and 5.1 g/dL and 5.0 g/dL and 5.6 g/dL and 5.5 g/dL and 5.4 g/dL
TRIG [2, 5]: 49 mg/dL and 46 mg/dL and 40 mg/dL and 53 mg/dL and 44 mg/dL and 34 mg/dL and 41 mg/dL and 55 mg/dL
AGR [2, 6]: 2.2 and 1.8 and 1.9
ALB [2, 6]: 3.5 g/dL and 3.4 g/dL and 3.3 g/dL
ALPK [2, 6]: 103 IU/L and 104 IU/L and 107 IU/L
ALT [2, 6]: 28 IU/L and 26 IU/L
AST [2, 6]: 33 IU/L and 39 IU/L
BUN [2, 6]: 12 mg/dL and 13 mg/dL
CA2 [2, 6]: 10.8 mg/dL and 10.7 mg/dL and 10.5 mg/dL
CHOL [2, 6]: 139 mg/dL and 136 mg/dL and 112 mg/dL
CREA [2, 6]: 0.7 mg/dL and 0.6 mg/dL
GGT [2, 6]: 3 IU/L
GLOB [2, 6]: 1.7 g/dL and 1.9 g/dL
GLUC [2, 6]: 102 mg/dL and 76 mg/dL and 91 mg/dL
K [2, 6]: 4.7 mmo/L and 5.0 mmo/L and 4.5 mmo/L
Na [2, 6]: 153 mmo/L and 148 mmo/L and 146 mmo/L
TBIL [2, 6]: 0.15 mg/dL
TP [2, 6]: 5.2 g/dL and 5.3 g/dL and 5.0 g/dL
TRIG [2, 6]: 51 mg/dL and 48 mg/dL and 42 mg/dL
